Assays:
[1] = system: BV-2 cells; assay: RT-PCR for CXCL10 and IFNβ transcripts in BV-2 cells; type: cell-based, mouse; conditions: for induction of CXCL10 mRNA / induction of IFNβ transcript: 200 μM; for induction of IFNβ transcript: microglia (BV-2, primary); for induction of CXCL10 mRNA on neutralization of IFNβ with an antibody: 200 μM with anti-IFNβ antibody, 4 hours
Protocol: (§1) BV-2 mouse microglia cells were grown in DMEM+10% FBS and THP-1 human monocyte cells were grown in RPMI-40+10% FBS+0.05 mM β-mercaptoethanol at 37° C., 5% CO2. Adherent cells were split using 1×TrypLE (Gibco). For cellular assays, cells were treated with the following concentrations of drugs as indicated in the DMEM without serum: 100-200 μM ganciclovir, 10 ng/ml IFNγ (R&D systems), 100 ng/ml LPS (Sigma-Aldrich), 1-10 μM Fludarabine (Selleckchem), 1 μM Ruxolitinib (Selleckchem), 1 μM TG-101348 (Selleckchem), 1 μM Amlexanox (Tocris bioscience) unless otherwise noted. All experiments were run in triplicates and replicated at least 3 times with cell lines and at least twice with primary microglia. Average data are shown for cell lines and representative data are shown for primary cells. Secreted signaling proteins were measured in supernatants from cultured cells stimulated with GCV and conditioned for 24 hours in the absence of serum using two independent Luminex arrays (Human Immune Monitoring Center, Stanford and Eve technologies, Canada). Nitrite assay was performed on conditioned culture supernatants of cells stimulated with drugs for 24 hours using the Griess Reagent System (Promega) according to manufacturer's instructions. To assess cellular viability, cell confluence was measured using an automated microscope (Cellavista; Roche).
(§2) RNA was isolated from cells using RNeasy mini kit from Qiagen. DNased RNA was converted to cDNA using SuperScript III reverse transcriptase kit (Life technologies). The cDNA was used to quantify specific targets using SYBR green in Roche Lightcycler 480. ΔΔCt values normalized against the experimental control to determine fold change in mRNA for each sample compared to untreated or vehicle treated control. β-actin or Ubc or both were used as housekeeping genes. Primer sequences were obtained from PrimerBank. Fold change is shown compared to the vehicle treated or untreated cells, unless otherwise noted.

[2] = system: THP-1 human monocyte cells; assay: RT-PCR for CXCL10 in THP-1 cells; type: cell-based; conditions: 200 μM, 8-24 hours
Protocol: as §1, with “Roche). […]” for “Roche).”

[3] = system: BV-2 microglia; assay: siRNA knockdown (STING, IRF3, Stat1, Jak2), then RT-PCR for CXCL10; type: cell-based, mouse; conditions: for CXCL10 or IFNβ mRNA expression after siRNA knockdown of Stat1 and Jak2 or lack of Stat1: BV-2 cells (siRNA) or Stat1 knockout primary microglia, 200 μM
Protocol: Smartpool siRNAs against mouse targets were bought from Dharmacon and transfected in microglia cells using Viromer Blue from Lipocalyx at a concentration of 50 nM according to manufacturer's instructions. Drugs were added cells after 24 hours of transfection and assays done 24 hours after addition of drugs.
as §2

[4] = system: BV-2 and primary microglia stimulated with IFNγ and LPS; assay: RT-PCR of inflammatory transcripts in IFNγ/LPS stimulated microglia; type: cell-based, mouse; conditions: IFNγ/LPS stimulated BV-2 microglia, 200 μM, 24 hours
Protocol: BV-2 mouse microglia cells were grown in DMEM+10% FBS and THP-1 human monocyte cells were grown in RPMI-40+10% FBS+0.05 mM β-mercaptoethanol at 37° C., 5% CO2. Adherent cells were split using 1×TrypLE (Gibco). For cellular assays, cells were treated with the following concentrations of drugs as indicated in the DMEM without serum: 100-200 μM ganciclovir, 10 ng/ml IFNγ (R&D systems), 100 ng/ml LPS (Sigma-Aldrich), 1-10 μM Fludarabine (Selleckchem), 1 μM Ruxolitinib (Selleckchem), 1 μM TG-101348 (Selleckchem), 1 μM Amlexanox (Tocris bioscience) unless otherwise noted. All experiments were run in triplicates and replicated at least 3 times with cell lines and at least twice with primary microglia. Average data are shown for cell lines and representative data are shown for primary cells. Secreted signaling proteins were measured in supernatants from cultured cells stimulated with GCV and conditioned for 24 hours in the absence of serum using two independent Luminex arrays (Human Immune Monitoring Center, Stanford and Eve technologies, Canada). Nitrite assay was performed on conditioned culture supernatants of cells stimulated with drugs for 24 hours using the Griess Reagent System (Promega) according to manufacturer's instructions. To assess cellular viability, cell confluence was measured using an automated microscope (Cellavista; Roche). Mice were housed and bred according to the Institutional Animal Care and Use Committee guidelines. Primary microglia and astrocytes were isolated from P0-P3 C57BL/6 mouse pups. Cortices from pups were isolated, meninges removed and tissue was dissociated using a 25-gauge needle. Two cortices were plated on each poly-L-lysine coated T-75 flasks in DMEM/F12+10% FBS+1% penicillin/streptomycin. Microglia and astrocyte co-cultures were maintained for 3 weeks, after which microglia were isolated using CD11b magnetic beads (Miltenyi Biotec) according to the manufacturer's instructions. Isolated microglia were allowed to recover for 1-2 days and processed for cellular assays described above. RNA was isolated from cells using RNeasy mini kit from Qiagen. […] was converted to cDNA using SuperScript III reverse transcriptase kit (Life technologies). The cDNA was used to quantify specific targets using SYBR green in Roche Lightcycler 480. ΔΔCt values normalized against the experimental control to determine fold change in mRNA for each sample compared to untreated or vehicle treated control. β-actin or Ubc or both were used as housekeeping genes. Primer sequences were obtained from PrimerBank. Fold change is shown compared to the vehicle treated or untreated cells, unless otherwise noted.

[5] = system: IFNγ/LPS stimulated BV-2 microglia; assay: Nitrite assay (Griess) on culture supernatants; type: cell-based, mouse; conditions: 24 hours
Protocol: as §1

[6] = system: primary microglia; assay: RT-PCR for CXCL10 and IFNβ transcripts in primary microglia (wildtype, tk KO, STING^gt/gt); type: cell-based, mouse; conditions: 200 μM, 6 hours; for CXCL10 mRNA in microglia from tk1 knockout mice: adult tk1 knockout primary microglia; for induction of CXCL10 mRNA in STING^gt/gt primary microglia / induction of IFNβ mRNA in STING^gt/gt primary microglia: primary microglia lacking functional STING
Protocol: Mice were housed and bred according to the Institutional Animal Care and Use Committee guidelines. Primary microglia and astrocytes were isolated from P0-P3 C57BL/6 mouse pups. Cortices from pups were isolated, meninges removed and tissue was dissociated using a 25-gauge needle. Two cortices were plated on each poly-L-lysine coated T-75 flasks in DMEM/F12+10% FBS+1% penicillin/streptomycin. Microglia and astrocyte co-cultures were maintained for 3 weeks, after which microglia were isolated using CD11b magnetic beads (Miltenyi Biotec) according to the manufacturer's instructions. Isolated microglia were allowed to recover for 1-2 days and processed for cellular assays described above.
For tk KO experiments only, microglia were isolated from adult mouse brains using the neural dissociation kit (Miltenyi Biotec) according to manufacturer's protocol followed by CD11b magnetic bead enrichment. Isolated cells were cultured for 3-4 days before the experiment.
as §2

[7] = BV-2 microglia, siRNA 24 hours, then 200 μM for 24 hours

Nc1nc2c(ncn2COCCO)c(=O)[nH]1 [Acyclovir]
induction of CXCL10 mRNA ([1]; BV-2 cells, 24 hours): failed to induce

CC(C)c1ccc2oc3nc(N)c(C(=O)O)cc3c(=O)c2c1 [Amlexanox]
inhibition of CXCL10 mRNA induction by GCV and diGCV (Tbk1 inhibition) ([1]; BV-2 cells, 1 μM Amlexanox with 200 μM GCV or diGCV, 24 hours): inhibited

Nc1ccn(C[C@@H](CO)OCP(=O)(O)O)c(=O)n1 [Cidofovir]
induction of CXCL10 mRNA ([1]; BV-2 cells, 24 hours): failed to induce

Cc1ccc2c(=O)c3cccc(CC(=O)O)c3oc2c1C [DMXAA]
induction of CXCL10 mRNA in human monocyte cell line [2]: did not
induction of CXCL10 mRNA ([1]; BV-2 cells, 24 hours): strongly induced
induction of IFNβ transcript [1]: strongly induced

O=C(O)P(=O)(O)O [Foscarnet]
induction of CXCL10 mRNA ([1]; BV-2 cells, 24 hours): failed to induce

Nc1nc2c(ncn2CCC(CO)CO)c(=O)[nH]1 [Penciclovir]
induction of CXCL10 mRNA ([1]; BV-2 cells, 24 hours): failed to induce

NC(=O)c1ncn([C@@H]2O[C@H](CO)[C@@H](O)[C@H]2O)n1 [Ribavirin]
induction of CXCL10 mRNA ([1]; BV-2 cells, 24 hours): failed to induce

Cc1cnc(Nc2ccc(OCCN3CCCC3)cc2)nc1Nc1cccc(S(=O)(=O)NC(C)(C)C)c1 [TG101348]
inhibition of CXCL10 production in response to GCV and diGCV ([1]; BV-2 cells, 24 hours, 10 μM Fludarabine or 1 μM Jak inhibitor with 200 μM GCV or diGCV): strongly inhibited
inhibition of CXCL10 production in response to cGAMP ([1]; BV-2 cells, 24 hours, 10 μM Fludarabine or 1 μM Jak inhibitor with 200 μM cGAMP): somewhat less pronounced

Nc1ncnc2c1ncn2[C@@H]1O[C@H](CO)[C@@H](O)[C@@H]1O [Vidarabine]
induction of CXCL10 mRNA ([1]; BV-2 cells, 24 hours): failed to induce

Nc1nc2c(ncn2[C@@H]2O[C@@H]3COP(=O)(O)O[C@H]4[C@@H](O)[C@H](n5cnc6c(=O)[nH]c(N)nc65)O[C@@H]4COP(=O)(O)O[C@H]3[C@H]2O)c(=O)[nH]1 [c-diGMP]
induction of CXCL10 mRNA ([1]; BV-2 cells, 24 hours): strongly induced
induction of IFNβ transcript [1]: strongly induced

Nc1nc2c(ncn2[C@@H]2O[C@@H]3COP(=O)(O)O[C@H]4[C@@H](O)[C@H](n5cnc6c(N)ncnc65)O[C@@H]4COP(=O)(O)O[C@@H]2[C@@H]3O)c(=O)[nH]1 [cGAMP, cyclic-GAMP]
CXCL10 or IFNβ mRNA expression after siRNA knockdown of Stat1 and Jak2 or lack of Stat1 [3]: significantly reduced
induction of CXCL10 mRNA on neutralization of IFNβ with an antibody ([1]; BV-2 cells): partly reduced
induction of CXCL10 mRNA ([1]; BV-2 cells, 24 hours): strongly induced
induction of IFNβ transcript [1]: strongly induced

NC1=Nc2c(ncn2COC(CO)CO)C(OCCOCCOCCOCCOc2nc(N)nc3c2ncn3COC(CO)CO)N1 (centres unmarked) [diGCV, 2-({2-Amino-6-[2-(2-{2-[2-(2-amino-9-{[2-hydroxy-1-(hydroxymethyl)ethoxy]methyl}-9H-purin-6-yloxy)ethoxy]ethoxy}ethoxy)ethoxy]-6,9-dihydro-1H-purin-9-yl}methoxy)-1,3-propanediol]
inflammatory markers (transcripts) [4]: potently reduced
microglial nitric oxide production (nitrite assay) [5]: potently reduced
CXCL10 mRNA in microglia from tk1 knockout mice [6]: triggered CXCL10 independent of endogenous tk1
induction of CXCL10 mRNA in STING^gt/gt primary microglia [6]: failed to induce
induction of IFNβ mRNA in STING^gt/gt primary microglia [6]: failed to induce
CXCL10 or IFNβ mRNA expression after siRNA knockdown of Stat1 and Jak2 or lack of Stat1 [3]: significantly reduced
capacity to induce CXCL10 after siRNA knock down of STING [3, 7]: largely abrogated
potential to induce CXCL10 mRNA after siRNA knockdown of IRF3 [3, 7]: inhibited
induction of CXCL10 mRNA on neutralization of IFNβ with an antibody ([1]; BV-2 cells): partly reduced
induction of CXCL10 mRNA ([1]; BV-2 cells, 24 hours): increased potency

Nc1nc2nc[nH]c2c(=O)[nH]1 [guanine]
induction of CXCL10 mRNA ([1]; BV-2 cells, 24 hours): failed to induce

Nc1nc2c(ncn2[C@@H]2O[C@H](CO)[C@@H](O)[C@H]2O)c(=O)[nH]1 [guanosine]
induction of CXCL10 mRNA ([1]; BV-2 cells, 24 hours): failed to induce

NC1=Nc2c(ncn2COC(CO)CO)C(OCCOCCOCCOCCO)N1 (centres unmarked) [monoGCV, 2-{[2-Amino-6-(2-{2-[2-(2-hydroxyethoxy)ethoxy]ethoxy}ethoxy)-6,9-dihydro-1H-purin-9-yl]methoxy}-1,3-propanediol]
inflammatory markers (transcripts) [4]: potently reduced
microglial nitric oxide production (nitrite assay) [5]: potently reduced
CXCL10 mRNA in microglia from tk1 knockout mice [6]: triggered CXCL10 independent of endogenous tk1
induction of CXCL10 mRNA in STING^gt/gt primary microglia [6]: failed to induce
induction of IFNβ mRNA in STING^gt/gt primary microglia [6]: failed to induce
CXCL10 or IFNβ mRNA expression after siRNA knockdown of Stat1 and Jak2 or lack of Stat1 [3]: significantly reduced
induction of CXCL10 mRNA on neutralization of IFNβ with an antibody ([1]; BV-2 cells): partly reduced

NC1=Nc2c(ncn2COC(CO)CO)C(OCCCSSCCCOC2NC(N)=Nc3c2ncn3COC(CO)CO)N1 (centres unmarked) [thiol-GCV, 2-[(2-Amino-6-{3-[3-(2-amino-9-{[2-hydroxy-1-(hydroxymethyl)ethoxy]methyl}-6,9-dihydro-1H-purin-6-yloxy)propyldithio]propoxy}-6,9-dihydro-1H-purin-9-yl)methoxy]-1,3-propanediol]
induction of CXCL10 mRNA ([1]; BV-2 cells, 24 hours): increased potency

— patent publication US9809597B2, “Ganciclovir derivatives for modulating innate and adaptive immunity and for use in immunotherapy” (The Board of Trustees of the Leland Stanford Junior …, priority 2015, dated 2017)
